For data set [1] the following is noted: Crystal; DTA.
Data set [2] in a line: Molar enthalpy of transition or fusion. The conditions noted are these: Crystal; DSC.

Each structure is given as a SMILES string. Numbers after ± are expanded uncertainties.

In the case of `CCOc1cc(C=O)ccc1O` [3-ethoxy-4-hydroxybenzaldehyde], the Normal melting temperature in data set [1] is 76.7 ± 0.5 °C. Besides, the “Molar enthalpy of transition or fusion” value in data set [2] stood at 6.06 ± 0.174 kcal/mol.
For `COc1cccc(C=O)c1O` [2-hydroxy-3-methoxybenzaldehyde], in that order: 40.5 ± 0.5 °C and 4.94 ± 0.148 kcal/mol.
For `COc1cc(C=O)ccc1O` [vanillin], in that order: 82.4 ± 0.5 °C and 5.73 ± 0.167 kcal/mol.
For `CCOc1cccc(C=O)c1O` [3-ethoxysalicylaldehyde], in that order: 64.1 ± 0.5 °C and 6.08 ± 0.179 kcal/mol.

(Values after the NIST ThermoML archive (doi:10.1016/j.fluid.2004.12.012).)
